Experimental data as given in PubChem BioAssay AID180 (DTP/NCI, 2004).
“And” between values parts separate entries of the source, which are not always exact repeats. Identical values can stand only once.

Tested on: BDF1 mice, Adenocarcinoma 755 s.c., tumor weight T/C
Assay: NCI In Vivo Anticancer Drug Screen. Data for tumor model Adenocarcinoma 755 (subcutaneous) in B6D2F1 (BDF1) mice
Settings: endpoint: mean tumor weight, higher = larger tumour
Outline: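 Tumor-bearing mice receive test compound while controls get vehicle alone. Antitumor effect is scored from survival or tumor dimensions as a T/C quotient.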

[1] = dose: 60.0 mg/kg/injection, schedule: Q01DX011 (ip), vehicle: carboxymethylcellulose (CMC)
[2] = dose: 30.0 mg/kg/injection, schedule: Q01DX011 (ip), vehicle: methylcellulose (MC)
[3] = dose: 120.0 mg/kg/injection, schedule: Q01DX011 (ip), vehicle: methylcellulose (MC)
[4] = dose: 12.5 mg/kg/injection, schedule: Q01DX011 (ip), vehicle: methylcellulose (MC)

SMILES: S=c1nc[nH]c2c1ncn2C1CCCC1
- T/C (dose: 3.0 mg/kg/injection, schedule: Q01DX011 (ip), vehicle: methylcellulose (MC)): 69 % of control
- T/C (dose: 6.0 mg/kg/injection, schedule: Q01DX011 (ip), vehicle: methylcellulose (MC)): 50 % of control
- T/C (dose: 12.0 mg/kg/injection, schedule: Q01DX011 (ip), vehicle: methylcellulose (MC)): 22 % of control
- T/C (dose: 15.0 mg/kg/injection, schedule: Q01DX011 (ip), vehicle: carboxymethylcellulose (CMC)): 12 % of control and 17 % of control
- T/C (dose: 15.0 mg/kg/injection, schedule: Q01DX011 (oral), vehicle: carboxymethylcellulose (CMC)): 13 % of control
- T/C (dose: 25.0 mg/kg/injection, schedule: Q01DX011 (ip), vehicle: methylcellulose (MC)): 4 % of control and 5 % of control
- T/C (dose: 30.0 mg/kg/injection, schedule: Q01DX011 (ip), vehicle: carboxymethylcellulose (CMC)): 6 % of control and 10 % of control
- T/C (dose: 30.0 mg/kg/injection, schedule: Q01DX011 (oral), vehicle: carboxymethylcellulose (CMC)): 7 % of control
- T/C [1]: 2 % of control and 3 % of control
- T/C (dose: 60.0 mg/kg/injection, schedule: Q01DX011 (oral), vehicle: carboxymethylcellulose (CMC)): 4 % of control
- T/C (dose: 120.0 mg/kg/injection, schedule: Q01DX011 (oral), vehicle: carboxymethylcellulose (CMC)): 3 % of control
- T/C (dose: 162.0 mg/kg/injection, schedule: Q01DX001 (ip), vehicle: carboxymethylcellulose (CMC)): 94 % of control
- T/C (dose: 325.0 mg/kg/injection, schedule: Q01DX001 (ip), vehicle: carboxymethylcellulose (CMC)): 7 % of control
- T/C (dose: 1300.0 mg/kg/injection, schedule: Q01DX001 (ip), vehicle: carboxymethylcellulose (CMC)): 1 % of control

SMILES: NS(=O)(=O)c1ncc2[nH]cnc2n1
- T/C (dose: 225.0 mg/kg/injection, schedule: Q01DX011 (ip), vehicle: carboxymethylcellulose (CMC)): 111 % of control
- T/C (dose: 450.0 mg/kg/injection, schedule: Q01DX011 (ip), vehicle: carboxymethylcellulose (CMC)): 82 % of control

SMILES: C/C(=N\NC(=O)c1ccncc1)c1ccc(Br)cc1
- T/C [2]: 44 % of control and 49 % of control
- T/C [3]: 48 % of control and 50 % of control
- T/C (dose: 240.0 mg/kg/injection, schedule: Q01DX011 (ip), vehicle: methylcellulose (MC)): 32 % of control and 52 % of control
- T/C (dose: 500.0 mg/kg/injection, schedule: Q01DX011 (ip), vehicle: methylcellulose (MC)): 54 % of control

SMILES: CCCn1cnc2c(SCc3ccccn3)nc(N)nc21
- T/C (dose: 3.6 mg/kg/injection, schedule: Q01DX011 (ip), vehicle: methylcellulose (MC)): 12 % of control
- T/C (dose: 7.25 mg/kg/injection, schedule: Q01DX011 (ip), vehicle: methylcellulose (MC)): 4 % of control
- T/C (dose: 15.5 mg/kg/injection, schedule: Q01DX011 (ip), vehicle: methylcellulose (MC)): 1 % of control

SMILES: C[C@@H]1C[C@H]2CC[C@H](O2)[C@H](C)C(=O)O[C@@H](C)C[C@@H]2CC[C@@H](O2)[C@@H](C)C(=O)O[C@H](C)C[C@H]2CC[C@H](O2)[C@H](C)C(=O)O[C@@H](C)C[C@@H]2CC[C@@H](O2)[C@@H](C)C(=O)O1
- T/C (dose: 2.5 mg/kg/injection, schedule: Q01DX011 (ip), vehicle: olive oil, sesame oil, peanut oil): 116 % of control
- T/C (dose: 5.0 mg/kg/injection, schedule: Q01DX011 (ip), vehicle: olive oil, sesame oil, peanut oil): 85 % of control
- T/C (dose: 10.0 mg/kg/injection, schedule: Q01DX011 (ip), vehicle: olive oil, sesame oil, peanut oil): 96 % of control
- T/C (dose: 10.0 mg/kg/injection, schedule: Q01DX011 (sc), vehicle: olive oil, sesame oil, peanut oil): 118 % of control
- T/C (dose: 18.0 mg/kg/injection, schedule: Q01DX011 (ip), vehicle: carboxymethylcellulose (CMC)): 116 % of control
- T/C (dose: 19.0 mg/kg/injection, schedule: Q01DX011 (ip), vehicle: methylcellulose (MC)): 89 % of control
- T/C (dose: 19.0 mg/kg/injection, schedule: Q01DX011 (sc), vehicle: methylcellulose (MC)): 246 % of control
- T/C (dose: 20.0 mg/kg/injection, schedule: Q01DX011 (ip), vehicle: olive oil, sesame oil, peanut oil): 48 % of control
- T/C (dose: 20.0 mg/kg/injection, schedule: Q01DX011 (sc), vehicle: olive oil, sesame oil, peanut oil): 73 % of control
- T/C (dose: 30.0 mg/kg/injection, schedule: Q01DX011 (sc), vehicle: olive oil, sesame oil, peanut oil): 87 % of control
- T/C (dose: 36.0 mg/kg/injection, schedule: Q01DX011 (ip), vehicle: carboxymethylcellulose (CMC)): 98 % of control
- T/C (dose: 37.5 mg/kg/injection, schedule: Q01DX011 (sc), vehicle: methylcellulose (MC)): 159 % of control
- T/C (dose: 40.0 mg/kg/injection, schedule: Q01DX011 (ip), vehicle: carboxymethylcellulose (CMC)): 87 % of control
- T/C (dose: 50.0 mg/kg/injection, schedule: Q01DX011 (ip), vehicle: carboxymethylcellulose (CMC)): 92 % of control
- T/C [1]: 89 % of control
- T/C (dose: 60.0 mg/kg/injection, schedule: Q01DX011 (sc), vehicle: olive oil, sesame oil, peanut oil): 57 % of control
- T/C (dose: 75.0 mg/kg/injection, schedule: Q01DX011 (ip), vehicle: methylcellulose (MC)): 91 % of control
- T/C (dose: 150.0 mg/kg/injection, schedule: Q01DX011 (sc), vehicle: methylcellulose (MC)): 211 % of control

SMILES: Cc1cnc(SCc2ccccc2Cl)nc1N(C)C
- T/C (dose: 15.0 mg/kg/injection, schedule: Q01DX011 (ip), vehicle: methylcellulose (MC)): 89 % of control
- T/C (dose: 125.0 mg/kg/injection, schedule: Q01DX011 (ip), vehicle: methylcellulose (MC)): 109 % of control

SMILES: CCCCn1cnc2c(SC(C)C)nc(N)nc21
- T/C (dose: 1.56 mg/kg/injection, schedule: Q01DX011 (ip), vehicle: methylcellulose (MC)): 64 % of control
- T/C (dose: 3.12 mg/kg/injection, schedule: Q01DX011 (ip), vehicle: methylcellulose (MC)): 57 % of control
- T/C (dose: 6.25 mg/kg/injection, schedule: Q01DX011 (ip), vehicle: methylcellulose (MC)): 14 % of control and 24 % of control
- T/C [4]: 3 % of control and 8 % of control

SMILES: CN1CCC(N)=NC1=O
- T/C (dose: 15.0 mg/kg/injection, schedule: Q01DX011 (ip), vehicle: saline): 88 % of control
- T/C (dose: 31.0 mg/kg/injection, schedule: Q01DX011 (ip), vehicle: saline): 92 % of control
- T/C (dose: 62.0 mg/kg/injection, schedule: Q01DX011 (ip), vehicle: saline): 92 % of control
- T/C (dose: 125.0 mg/kg/injection, schedule: Q01DX011 (ip), vehicle: saline): 65 % of control
- T/C (dose: 250.0 mg/kg/injection, schedule: Q01DX011 (ip), vehicle: saline): 74 % of control

SMILES: NC(=O)c1ccc(NC(=O)/C=C/C(=O)Nc2ccc(C(N)=O)cn2)nc1
- T/C (dose: 0.47 mg/kg/injection, schedule: Q01DX011 (ip), vehicle: carboxymethylcellulose (CMC)): 75 % of control
- T/C (dose: 0.94 mg/kg/injection, schedule: Q01DX011 (ip), vehicle: carboxymethylcellulose (CMC)): 69 % of control
- T/C (dose: 1.87 mg/kg/injection, schedule: Q01DX011 (ip), vehicle: carboxymethylcellulose (CMC)): 28 % of control

SMILES: CCCCCCn1cnc2c(=S)nc[nH]c21
- T/C (dose: 63.0 mg/kg/injection, schedule: Q01DX011 (ip), vehicle: carboxymethylcellulose (CMC)): 50 % of control
- T/C (dose: 500.0 mg/kg/injection, schedule: Q01DX011 (ip), vehicle: carboxymethylcellulose (CMC)): 5 % of control and 13 % of control

SMILES: O=C(CCCl)N1CCN(C(=O)CCCl)CC1
- T/C (dose: 11.25 mg/kg/injection, schedule: Q01DX011 (ip), vehicle: methylcellulose (MC)): 64 % of control
- T/C (dose: 22.5 mg/kg/injection, schedule: Q01DX011 (ip), vehicle: methylcellulose (MC)): 66 % of control
- T/C (dose: 44.0 mg/kg/injection, schedule: Q01DX011 (ip), vehicle: saline): 86 % of control
- T/C (dose: 45.0 mg/kg/injection, schedule: Q01DX011 (ip), vehicle: methylcellulose (MC)): 80 % of control
- T/C (dose: 87.5 mg/kg/injection, schedule: Q01DX011 (ip), vehicle: saline): 63 % of control
- T/C (dose: 90.0 mg/kg/injection, schedule: Q01DX011 (ip), vehicle: methylcellulose (MC)): 56 % of control
- T/C (dose: 175.0 mg/kg/injection, schedule: Q01DX011 (ip), vehicle: methylcellulose (MC)): 26 % of control and 33 % of control and 50 % of control
- T/C (dose: 175.0 mg/kg/injection, schedule: Q01DX011 (ip), vehicle: saline): 70 % of control
- T/C (dose: 263.0 mg/kg/injection, schedule: Q01DX011 (ip), vehicle: saline): 40 % of control

SMILES: CC(C)CCn1cnc2c(SCc3ccccc3F)nc(N)nc21
- T/C [2]: 62 % of control
- T/C (dose: 100.0 mg/kg/injection, schedule: Q01DX011 (ip), vehicle: methylcellulose (MC)): 65 % of control
- T/C (dose: 300.0 mg/kg/injection, schedule: Q01DX011 (ip), vehicle: methylcellulose (MC)): 10 % of control

SMILES: CC(=O)Nc1nc(SCc2ccccc2)c2[nH]cnc2n1
- T/C [4]: 8 % of control

SMILES: O=C(Nc1ccc(C2=NCCS2)cc1)c1ccc(C(=O)Nc2ccc(C3=NCCS3)cc2)cc1
- T/C [2]: 118 % of control
- T/C [3]: 121 % of control
